Data as given in publication PMC12171682, “Saarvienin A—A Novel Glycopeptide with Potent Activity against Drug‐Resistant Bacteria” (Angewandte Chemie (International Ed. in English), 2025).
In brackets after ≈: the same amount, converted by molar mass. Where two headings read alike, the source gives them in different places.

Columns and labels:
[1] = test system: E. faecalis DSM 12956 (VRE, vanB positive); details: broth microdilution, cation-adjusted Mueller-Hinton Broth II, ~4 × 10⁵ CFU/mL, 37 °C, 24 h; mean of three independent biological replicates, each in technical triplicate
E. faecalis ATCC 29212 = details: broth microdilution, 37 °C, 24 h
[2] = test system: E. faecium DSM 17050 (VRE, vanA positive); details: broth microdilution, cation-adjusted Mueller-Hinton Broth II, ~4 × 10⁵ CFU/mL, 37 °C, 24 h; mean of three independent biological replicates, each in technical triplicate
S. aureus N315 (MRSA) = details: broth microdilution, cation-adjusted Mueller-Hinton Broth II, ~4 × 10⁵ CFU/mL, 37 °C, 24 h; mean of three independent biological replicates, each in technical triplicate
[3] = test system: S. aureus Mu50 (MRSA/VISA); details: broth microdilution, cation-adjusted Mueller-Hinton Broth II, ~4 × 10⁵ CFU/mL, 37 °C, 24 h, mean of three independent biological replicates, each in technical triplicate
[4] = test system: S. aureus DSM 11822 (MDR); details: broth microdilution, cation-adjusted Mueller-Hinton Broth II, ~4 × 10⁵ CFU/mL, 37 °C, 24 h; mean of three independent biological replicates, each in technical triplicate
S. aureus HG001‐DRSA = details: daptomycin-resistant mutant of HG001; broth microdilution, cation-adjusted Mueller-Hinton Broth II, ~4 × 10⁵ CFU/mL, 37 °C, 24 h; mean of three independent biological replicates, each in technical triplicate
[5] = test system: M. tuberculosis H37Ra ATCC 25177
E. coli K12 ΔtolC = details: broth microdilution, cation-adjusted Mueller-Hinton Broth II, 37 °C, 24 h, mean of three independent biological replicates, each in technical triplicate; for MIC, E. coli K12 ΔtolC (tolC‐deficient) + PMBN: co‐incubated with sub‐lethal concentrations of polymyxin B nonapeptide (PMBN); for MIC, E. coli K12 ΔtolC: without PMBN, ~4 × 10⁵ CFU/mL
[6] = test system: E. coli WO153 (AB1157, recJ asmB1, ΔtolC); details: broth microdilution, cation-adjusted Mueller-Hinton Broth II, ~4 × 10⁵ CFU/mL, 37 °C, 24 h; mean of three independent biological replicates, each in technical triplicate
E. coli K12 ΔacrB = details: broth microdilution, cation-adjusted Mueller-Hinton Broth II, ~4 × 10⁵ CFU/mL, 37 °C, 24 h, mean of three independent biological replicates, each in technical triplicate
[7] = test system: vancomycin‐resistant E. faecium clinical isolates with reduced susceptibility to daptomycin (n = 26)
[8] = cation-adjusted Mueller-Hinton Broth II, ~4 × 10⁵ CFU/mL, mean of three independent biological replicates, each in technical triplicate
[9] = reference strain in Table S5, MHB II, daptomycin with 50 µg/mL Ca2+, mean of two independent experiments
[10] = 26 VRE E. faecium clinical isolates, broth microdilution, MHB II, daptomycin with 50 µg/mL Ca2+, mean of two independent experiments

## CN[C@@]1(C)C[C@H](O[C@@H]2[C@H](O)C[C@H](O[C@H]3[C@H](C)O[C@@H](O[C@H]4[C@H](O[C@H]5[C@H](C)O[C@@H](Oc6ccc(C[C@@H](O)C(=O)N[C@H]7CNC(=O)NC[C@@H](C(=O)N[C@H](Cc8ccccc8)C(=O)O)NC(=O)[C@H]([C@H](C)c8c[nH]c9ccc(Cl)cc89)NC7=O)cc6)C[C@]5(C)N)O[C@@H](C)[C@H](O)[C@H]4O)C[C@]3(C)NC)O[C@H]2C)O[C@@H](C)[C@@H]1OC [Saarvienin A, saarvienin A]
[1]
  MIC, E. faecalis DSM 12956 (VRE, vanB positive): 1 µg/mL (≈ 0.662 µM)
E. faecalis ATCC 29212; [8]
  MIC, E. faecalis ATCC29212: 2 µg/mL (≈ 1.32 µM)
E. faecalis ATCC 29212; [9]
  MIC, E. faecalis ATCC29212: 2 µg/mL (≈ 1.32 µM)
[2]
  MIC, E. faecium DSM 17050 (VRE, vanA positive): 1 µg/mL (≈ 0.662 µM)
S. aureus N315 (MRSA)
  MIC, S. aureus N315 (MRSA): 0.5 µg/mL (≈ 0.331 µM)
[3]
  MIC, S. aureus Mu50 (MRSA/VISA): 1 µg/mL (≈ 0.662 µM)
[3]; listed as 1
  MIC, S. aureus Mu50 (MRSA/VISA): 0.5 µg/mL (≈ 0.331 µM)
[4]
  MIC, S. aureus DSM 11822 (MDR): 0.5 µg/mL (≈ 0.331 µM)
S. aureus HG001‐DRSA
  MIC, S. aureus HG001‐DRSA: 1 µg/mL (≈ 0.662 µM)
[5]
  MIC, M. tuberculosis H37Ra ATCC 25177: 32 µg/mL (≈ 21.2 µM)
E. coli K12 ΔtolC
  MIC, E. coli K12 ΔtolC (tolC‐deficient) + PMBN: 32 µg/mL
  MIC, E. coli K12 ΔtolC: 64 µg/mL (≈ 42.4 µM)
[6]
  MIC, E. coli WO153 (AB1157, recJ asmB1, ΔtolC): 2 µg/mL (≈ 1.32 µM)
E. coli K12 ΔacrB
  MIC, E. coli K12 ΔacrB: >64 µg/mL
E. coli K12 ΔacrB; listed as 1
  MIC, E. coli K12 ΔacrB: non‐susceptible
[7]; 24 h
  MIC50: 0.5 µg/mL (≈ 0.331 µM)
  MIC90: 0.5 µg/mL (≈ 0.331 µM)
  MIC Range: 0.5 to 1 µg/mL
  MIC, Enterococcus faecium isolate 1: 1 µg/mL (≈ 0.662 µM)
  MIC, Enterococcus faecium isolate 2: 0.5 µg/mL (≈ 0.331 µM)
  MIC, Enterococcus faecium isolate 3: 0.5 µg/mL (≈ 0.331 µM)
  MIC, Enterococcus faecium isolate 4: 0.5 µg/mL (≈ 0.331 µM)
  MIC, Enterococcus faecium isolate 5: 0.5 µg/mL (≈ 0.331 µM)
  MIC, Enterococcus faecium isolate 6: 0.5 µg/mL (≈ 0.331 µM)
  MIC, Enterococcus faecium isolate 7: 0.5 µg/mL (≈ 0.331 µM)
  MIC, Enterococcus faecium isolate 8: 0.5 µg/mL (≈ 0.331 µM)
  MIC, Enterococcus faecium isolate 9: 0.5 µg/mL (≈ 0.331 µM)
  MIC, Enterococcus faecium isolate 10: 0.5 µg/mL (≈ 0.331 µM)
  MIC, Enterococcus faecium isolate 11: 0.5 µg/mL (≈ 0.331 µM)
  MIC, Enterococcus faecium isolate 12: 0.5 µg/mL (≈ 0.331 µM)
  MIC, Enterococcus faecium isolate 13: 0.5 µg/mL (≈ 0.331 µM)
  MIC, Enterococcus faecium isolate 14: 0.5 µg/mL (≈ 0.331 µM)
  MIC, Enterococcus faecium isolate 15: 0.5 µg/mL (≈ 0.331 µM)
  MIC, Enterococcus faecium isolate 16: 0.5 µg/mL (≈ 0.331 µM)
  MIC, Enterococcus faecium isolate 17: 0.5 µg/mL (≈ 0.331 µM)
  MIC, Enterococcus faecium isolate 18: 0.5 µg/mL (≈ 0.331 µM)
  MIC, Enterococcus faecium isolate 19: 0.5 µg/mL (≈ 0.331 µM)
  MIC, Enterococcus faecium isolate 20: 0.5 µg/mL (≈ 0.331 µM)
  MIC, Enterococcus faecium isolate 21: 0.5 µg/mL (≈ 0.331 µM)
  MIC, Enterococcus faecium isolate 22: 0.5 µg/mL (≈ 0.331 µM)
  MIC, Enterococcus faecium isolate 23: 0.5 µg/mL (≈ 0.331 µM)
  MIC, Enterococcus faecium isolate 24: 0.5 µg/mL (≈ 0.331 µM)
  MIC, Enterococcus faecium isolate 25: 0.5 µg/mL (≈ 0.331 µM)
  MIC, Enterococcus faecium isolate 26: 0.5 µg/mL (≈ 0.331 µM)

## CN[C@H](CC(C)C)C(=O)N[C@H]1C(=O)N[C@@H](CC(N)=O)C(=O)N[C@H]2C(=O)N[C@H]3C(=O)N[C@H](C(=O)N[C@H](C(=O)O)c4cc(O)cc(O)c4-c4cc3ccc4O)[C@H](O)c3ccc(c(Cl)c3)Oc3cc2cc(c3O[C@@H]2O[C@H](CO)[C@@H](O)[C@H](O)[C@H]2O[C@H]2C[C@](C)(N)[C@H](O)[C@H](C)O2)Oc2ccc(cc2Cl)[C@H]1O [Vancomycin, vancomycin]
[1]
  MIC, E. faecalis DSM 12956 (VRE, vanB positive): 16 µg/mL (≈ 11 µM)
E. faecalis ATCC 29212; [8]
  MIC, E. faecalis ATCC29212: 4 µg/mL (≈ 2.76 µM)
E. faecalis ATCC 29212; [9]
  MIC, E. faecalis ATCC29212: 4 µg/mL (≈ 2.76 µM)
S. aureus N315 (MRSA)
  MIC, S. aureus N315 (MRSA): 2 µg/mL (≈ 1.38 µM)
[3]
  MIC, S. aureus Mu50 (MRSA/VISA): 8 µg/mL (≈ 5.52 µM)
[4]
  MIC, S. aureus DSM 11822 (MDR): 1 µg/mL (≈ 0.69 µM)
S. aureus HG001‐DRSA
  MIC, S. aureus HG001‐DRSA: 4 µg/mL (≈ 2.76 µM)
[5]
  MIC, M. tuberculosis H37Ra ATCC 25177: 64 µg/mL (≈ 44.2 µM)
E. coli K12 ΔtolC
  MIC, E. coli K12 ΔtolC (tolC‐deficient) + PMBN: >64 µg/mL
  MIC, E. coli K12 ΔtolC: >64 µg/mL
[6]
  MIC, E. coli WO153 (AB1157, recJ asmB1, ΔtolC): 32 µg/mL (≈ 22.1 µM)
E. coli K12 ΔacrB
  MIC, E. coli K12 ΔacrB: >64 µg/mL
[7]; [10]
  MIC50: >64 µg/mL
  MIC90: >64 µg/mL
[7]; clinical isolate 1, broth microdilution, MHB II, 37 °C, 24 h, daptomycin with 50 µg/mL Ca2+, mean of two independent experiments
  MIC, Enterococcus faecium isolate 1: > 64 µg/mL
[7]; clinical isolate 2, broth microdilution, MHB II, 37 °C, 24 h, daptomycin with 50 µg/mL Ca2+, mean of two independent experiments
  MIC, Enterococcus faecium isolate 2: > 64 µg/mL
[7]; clinical isolate 3, broth microdilution, MHB II, 37 °C, 24 h, daptomycin with 50 µg/mL Ca2+, mean of two independent experiments
  MIC, Enterococcus faecium isolate 3: 64 µg/mL (≈ 44.2 µM)
[7]; clinical isolate 4, broth microdilution, MHB II, 37 °C, 24 h, daptomycin with 50 µg/mL Ca2+, mean of two independent experiments
  MIC, Enterococcus faecium isolate 4: > 64 µg/mL
[7]; clinical isolate 5, broth microdilution, MHB II, 37 °C, 24 h, daptomycin with 50 µg/mL Ca2+, mean of two independent experiments
  MIC, Enterococcus faecium isolate 5: > 64 µg/mL
[7]; clinical isolate 6, broth microdilution, MHB II, 37 °C, 24 h, daptomycin with 50 µg/mL Ca2+, mean of two independent experiments
  MIC, Enterococcus faecium isolate 6: > 64 µg/mL
[7]; clinical isolate 7, broth microdilution, MHB II, 37 °C, 24 h, daptomycin with 50 µg/mL Ca2+, mean of two independent experiments
  MIC, Enterococcus faecium isolate 7: > 64 µg/mL
[7]; clinical isolate 8, broth microdilution, MHB II, 37 °C, 24 h, daptomycin with 50 µg/mL Ca2+, mean of two independent experiments
  MIC, Enterococcus faecium isolate 8: > 64 µg/mL
[7]; clinical isolate 9, broth microdilution, MHB II, 37 °C, 24 h, daptomycin with 50 µg/mL Ca2+, mean of two independent experiments
  MIC, Enterococcus faecium isolate 9: > 64 µg/mL
[7]; clinical isolate 10, broth microdilution, MHB II, 37 °C, 24 h, daptomycin with 50 µg/mL Ca2+, mean of two independent experiments
  MIC, Enterococcus faecium isolate 10: > 64 µg/mL
[7]; clinical isolate 11, broth microdilution, MHB II, 37 °C, 24 h, daptomycin with 50 µg/mL Ca2+, mean of two independent experiments
  MIC, Enterococcus faecium isolate 11: > 64 µg/mL
[7]; clinical isolate 12, broth microdilution, MHB II, 37 °C, 24 h, daptomycin with 50 µg/mL Ca2+, mean of two independent experiments
  MIC, Enterococcus faecium isolate 12: > 64 µg/mL
[7]; clinical isolate 13, broth microdilution, MHB II, 37 °C, 24 h, daptomycin with 50 µg/mL Ca2+, mean of two independent experiments
  MIC, Enterococcus faecium isolate 13: > 64 µg/mL
[7]; clinical isolate 14, broth microdilution, MHB II, 37 °C, 24 h, daptomycin with 50 µg/mL Ca2+, mean of two independent experiments
  MIC, Enterococcus faecium isolate 14: > 64 µg/mL
[7]; clinical isolate 15, broth microdilution, MHB II, 37 °C, 24 h, daptomycin with 50 µg/mL Ca2+, mean of two independent experiments
  MIC, Enterococcus faecium isolate 15: > 64 µg/mL
[7]; clinical isolate 16, broth microdilution, MHB II, 37 °C, 24 h, daptomycin with 50 µg/mL Ca2+, mean of two independent experiments
  MIC, Enterococcus faecium isolate 16: > 64 µg/mL
[7]; clinical isolate 17, broth microdilution, MHB II, 37 °C, 24 h, daptomycin with 50 µg/mL Ca2+, mean of two independent experiments
  MIC, Enterococcus faecium isolate 17: > 64 µg/mL
[7]; clinical isolate 18, broth microdilution, MHB II, 37 °C, 24 h, daptomycin with 50 µg/mL Ca2+, mean of two independent experiments
  MIC, Enterococcus faecium isolate 18: > 64 µg/mL
[7]; clinical isolate 19, broth microdilution, MHB II, 37 °C, 24 h, daptomycin with 50 µg/mL Ca2+, mean of two independent experiments
  MIC, Enterococcus faecium isolate 19: > 64 µg/mL
[7]; clinical isolate 20, broth microdilution, MHB II, 37 °C, 24 h, daptomycin with 50 µg/mL Ca2+, mean of two independent experiments
  MIC, Enterococcus faecium isolate 20: > 64 µg/mL
[7]; clinical isolate 21, broth microdilution, MHB II, 37 °C, 24 h, daptomycin with 50 µg/mL Ca2+, mean of two independent experiments
  MIC, Enterococcus faecium isolate 21: > 64 µg/mL
[7]; clinical isolate 22, broth microdilution, MHB II, 37 °C, 24 h, daptomycin with 50 µg/mL Ca2+, mean of two independent experiments
  MIC, Enterococcus faecium isolate 22: > 64 µg/mL
[7]; clinical isolate 23, broth microdilution, MHB II, 37 °C, 24 h, daptomycin with 50 µg/mL Ca2+, mean of two independent experiments
  MIC, Enterococcus faecium isolate 23: > 64 µg/mL
[7]; clinical isolate 24, broth microdilution, MHB II, 37 °C, 24 h, daptomycin with 50 µg/mL Ca2+, mean of two independent experiments
  MIC, Enterococcus faecium isolate 24: > 64 µg/mL
[7]; clinical isolate 25, broth microdilution, MHB II, 37 °C, 24 h, daptomycin with 50 µg/mL Ca2+, mean of two independent experiments
  MIC, Enterococcus faecium isolate 25: > 64 µg/mL
[7]; clinical isolate 26, broth microdilution, MHB II, 37 °C, 24 h, daptomycin with 50 µg/mL Ca2+, mean of two independent experiments
  MIC, Enterococcus faecium isolate 26: > 64 µg/mL
